We go through 32 molecules from patent US12528792B2, “Sulfonamide compounds and the use thereof in the treatment of cancer” (TROBIO THERAPEUTICS PTY LTD, priority 2019, dated 2026).

One assay has as its system A2780 (ovarian) cells. The experiment in a line: Anti-proliferative activity, Cell-Titre luminescent viability assay. Format: cell-based. The settings on record: Homo sapiens, 72 h exposure, Cell-Titre luminescent reagent. The protocol: (§1) The ability of compounds of the disclosure to inhibit the proliferation of cancer cells representative of non-small cell lung cancer and ovarian cancer (Table 1), and pancreatic cancer, colorectal cancer and prostate cancer (Table 2) was assessed. Briefly, a predetermined number of cells as calculated from cell growth assays for each of the cell lines employed were seeded into their respective culture medium (using ATCC culture parameters—http://www.atcc.org) and cultured for 24 h at 37° C. and 5% CO2 in 96-well culture plates. Once attached, each cell line was then exposed to various concentrations of each respective analogue (100, 30, 10, 3, 1 and 0.3 µM or 30, 10, 3, 1, 0.3 and 0.1 μM), cultured for a further 72 h and exposed to Cell-Titre luminescent reagent (100 μL/well) for a further 30 min. Luminescence was captured using an EnVision multilabel reader and the data for each analogue concentration compared against no treatment control. Cell viability was normalised to control (vehicle alone) and dose response curves, and half maximal effective concentration (EC50) values were determined using Graph Pad Prism 6 (nonlinear regression sigmoidal dose-response variable slope).

A further assay relates to A549 (NSCLC) cells. The description is as above. It counts as cell-based. To be noted: Homo sapiens, 72 h exposure, Cell-Titre luminescent reagent. Here is the method: as §1

`O=C(Nc1ccc(Cl)cc1)c1ccn(S(=O)(=O)c2ccc3[nH]ccc3c2)c1` [Compound 66, 1-((1H-indol-5-yl)sulfonyl)-N-(4-chlorophenyl)-1H-pyrrole-3-carboxamide]: the IC50 in the assay on A2780 (ovarian) cells amounted to 13.6 µM; with A549 (NSCLC) cells, 15.9 µM.
Take `O=C(Nc1ccc(F)c(Cl)c1)c1ccn(S(=O)(=O)c2ccc3[nH]ccc3c2)c1` [Compound 70, 1-((1H-indol-5-yl)sulfonyl)-N-(3-chloro-4-fluorophenyl)-1H-pyrrole-3-carboxamide]: the IC50 in the assay with A2780 (ovarian) cells came out at 12.2 µM; with A549 (NSCLC) cells, 13.8 µM.
As for `O=C(Nc1ccc(F)cn1)c1ccn(S(=O)(=O)c2ccc3[nH]ccc3c2)c1` [Compound 72], the values for the half-inhibitory concentration (IC50) in the assay with A2780 (ovarian) cells and in the assay on A549 (NSCLC) cells were above 30 µM and 3.45 µM, respectively.
Consider `O=C(Nc1ccc(Cl)cn1)c1ccn(S(=O)(=O)c2ccc3[nH]ccc3c2)c1` [Compound 73], for which the IC50 stood at 11.2 µM in the assay on A2780 (ovarian) cells and 2.62 µM in the assay on A549 (NSCLC) cells.
With `O=C(Nc1ccc(F)nc1)c1ccn(S(=O)(=O)c2ccc3[nH]ccc3c2)c1` [Compound 74, 1-((1H-indol-5-yl)sulfonyl)-N-(6-fluoropyridin-3-yl)-1H-pyrrole-3-carboxamide], the figures for the half-inhibitory concentration (IC50) in the assay on A2780 (ovarian) cells and in the assay on A549 (NSCLC) cells were 3.9 µM and above 30 µM, respectively.
Take `O=C(Nc1ccc(Cl)nc1)c1ccn(S(=O)(=O)c2ccc3[nH]ccc3c2)c1` [Compound 75, 1-((1H-indol-5-yl)sulfonyl)-N-(6-chloropyridin-3-yl)-1H-pyrrole-3-carboxamide]: the IC50 in the assay on A2780 (ovarian) cells came out at 26.7 µM; with A549 (NSCLC) cells, 18.6 µM.
For `O=C(Nc1ccc(F)cc1)c1ccn(S(=O)(=O)c2ccc3[nH]ccc3c2)n1` [Compound 76, 1-((1H-indol-5-yl)sulfonyl)-N-(4-fluorophenyl)-1H-pyrazole-3-carboxamide], the concentration for half-maximal inhibition (IC50) is 23.8 µM in the assay on A2780 (ovarian) cells and above 30 µM in the assay on A549 (NSCLC) cells.
The like results for `O=C(Nc1ccc(Cl)cc1)c1ccn(S(=O)(=O)c2ccc3[nH]ccc3c2)n1` [Compound 77, 1-((1H-indol-5-yl)sulfonyl)-N-(4-chlorophenyl)-1H-pyrazole-3-carboxamide] were, in that order, above 30 µM and 19 µM.
`N#Cc1ccc(NC(=O)c2ccn(S(=O)(=O)c3ccc4[nH]ccc4c3)n2)cc1` [Compound 79, 1-((1H-indol-5-yl)sulfonyl)-N-(4-cyanophenyl)-1H-pyrazole-3-carboxamide]: the 50% inhibitory concentration (IC50) in the assay with A2780 (ovarian) cells was above 30 µM; in the assay on A549 (NSCLC) cells, 6.72 µM.
`O=C(Nc1ccc(F)c(F)c1)c1ccn(S(=O)(=O)c2ccc3[nH]ccc3c2)n1` [Compound 80, 1-((1H-indol-5-yl)sulfonyl)-N-(3,4-difluorophenyl)-1H-pyrazole-3-carboxamide]: the results for the half-inhibitory concentration (IC50) with A2780 (ovarian) cells and with A549 (NSCLC) cells were 13.2 µM and 4.84 µM, respectively.
Consider `O=C(Nc1ccc(Cl)c(F)c1)c1ccn(S(=O)(=O)c2ccc3[nH]ccc3c2)n1` [Compound 81, 1-((1H-indol-5-yl)sulfonyl)-N-(4-chloro-3-fluorophenyl)-1H-pyrazole-3-carboxamide], for which the results for the IC50 with A2780 (ovarian) cells and in the assay on A549 (NSCLC) cells were 9.33 µM and above 30 µM, respectively.
The like results for `O=C(Nc1ccc(F)c(Cl)c1)c1ccn(S(=O)(=O)c2ccc3[nH]ccc3c2)n1` [Compound 82, 1-((1H-indol-5-yl)sulfonyl)-N-(3-chloro-4-fluorophenyl)-1H-pyrazole-3-carboxamide] were, in that order, 10.5 µM and 16.1 µM.
`O=C(Nc1ccc(F)cn1)c1ccn(S(=O)(=O)c2ccc3[nH]ccc3c2)n1` [Compound 84, 1-((1H-indol-5-yl)sulfonyl)-N-(5-fluoropyridin-2-yl)-1H-pyrazole-3-carboxamide]: the IC50 with A2780 (ovarian) cells and in the assay on A549 (NSCLC) cells was above 30 µM in each case.
`O=C(Nc1ccc(Cl)cn1)c1ccn(S(=O)(=O)c2ccc3[nH]ccc3c2)n1` [Compound 85]: the values for the IC50 with A2780 (ovarian) cells and in the assay on A549 (NSCLC) cells were 21.3 µM and 11.1 µM, respectively.
As for `O=C(Nc1ccc(F)nc1)c1ccn(S(=O)(=O)c2ccc3[nH]ccc3c2)n1` [Compound 86, 1-((1H-indol-5-yl)sulfonyl)-N-(6-fluoropyridin-3-yl)-1H-pyrazole-3-carboxamide], the 50% inhibitory concentration (IC50) in the assay on A2780 (ovarian) cells and with A549 (NSCLC) cells was above 30 µM in each case.
On to `O=C(Nc1ccc(Cl)nc1)c1ccn(S(=O)(=O)c2ccc3[nH]ccc3c2)n1` [Compound 87, 1-((1H-indol-5-yl)sulfonyl)-N-(6-chloropyridin-3-yl)-1H-pyrazole-3-carboxamide], for which the IC50 was at least 30 µM in the assay with A2780 (ovarian) cells and above 30 µM with A549 (NSCLC) cells.
Regarding `CCC(C)c1ccc(CCNC(=O)c2ccn(S(=O)(=O)c3ccc(C(C)(C)C)cc3)c2)cc1` (stereo not shown) [Compound 88, N-(4-(sec-butyl)phenethyl)-1-((4-(tert-butyl)phenyl)sulfonyl)-1H-pyrrole-3-carboxamide], the half-inhibitory concentration (IC50) with A2780 (ovarian) cells and in the assay on A549 (NSCLC) cells was above 30 µM throughout.
For the molecule `CC(C)(C)c1ccc(S(=O)(=O)n2ccc(C(=O)NCCc3ccc(C(F)(F)F)cc3)c2)cc1` [Compound 90, 1-((4-(tert-butyl)phenyl)sulfonyl)-N-(4-(trifluoromethyl)phenethyl)-1H-pyrrole-3-carboxamide], the IC50 with A2780 (ovarian) cells and in the assay with A549 (NSCLC) cells was above 30 µM each time.
On to `CCC(C)c1ccc(NC(=O)c2ccn(S(=O)(=O)c3ccc(C(C)(C)C)cc3)c2)cc1` (stereo not shown) [Compound 91, N-(4-(sec-butyl)phenyl)-1-((4-(tert-butyl)phenyl)sulfonyl)-1H-pyrrole-3-carboxamide], for which the half-inhibitory concentration (IC50) in the assay on A2780 (ovarian) cells and in the assay on A549 (NSCLC) cells was above 30 µM each time.
In the case of `CCC(C)c1ccc(NC(=O)c2ccn(S(=O)(=O)c3ccc4[nH]ccc4c3)c2)cc1F` (stereo not shown) [Compound 94, 1-((1H-indol-5-yl)sulfonyl)-N-(4-(sec-butyl)-3-fluorophenyl)-1H-pyrrole-3-carboxamide], the IC50 is 4.32 µM with A2780 (ovarian) cells and 7.92 µM in the assay on A549 (NSCLC) cells.
For `CC(C)c1ccc(NC(=O)c2ccn(S(=O)(=O)c3ccc4[nH]ccc4c3)c2)cc1F` [Compound 95, 1-((1H-indol-5-yl)sulfonyl)-N-(3-fluoro-4-isopropylphenyl)-1H-pyrrole-3-carboxamide], in that order: 5.28 µM and 7.84 µM.
Take `CCCc1ccc(NC(=O)c2ccn(S(=O)(=O)c3ccc4[nH]ccc4c3)c2)cc1F` [Compound 97, 1-((1H-indol-5-yl)sulfonyl)-N-(3-fluoro-4-propylphenyl)-1H-pyrrole-3-carboxamide]: the concentration for half-maximal inhibition (IC50) with A2780 (ovarian) cells is 8.31 µM; in the assay with A549 (NSCLC) cells, 10.7 µM.
With `CC(C)Cc1ccc(NC(=O)c2ccn(S(=O)(=O)c3ccc4[nH]ccc4c3)c2)cc1` [Compound 98, 1-((1H-indol-5-yl)sulfonyl)-N-(4-isobutylphenyl)-1H-pyrrole-3-carboxamide], the concentration for half-maximal inhibition (IC50) in the assay with A2780 (ovarian) cells was 5.07 µM; in the assay on A549 (NSCLC) cells, 13.2 µM.
For `CC(C)Cc1ccc(NC(=O)c2ccn(S(=O)(=O)c3ccc4[nH]ccc4c3)c2)cc1F` [Compound 99, 1-((1H-indol-5-yl)sulfonyl)-N-(3-fluoro-4-isobutylphenyl)-1H-pyrrole-3-carboxamide], in that order: 4.9 µM and 7.47 µM.
The like results for `CC(C)(C)c1ccc(NC(=O)c2ccn(S(=O)(=O)c3ccc4[nH]ccc4c3)c2)cc1F` [Compound 101, 1-((1H-indol-5-yl)sulfonyl)-N-(4-(tert-butyl)-3-fluorophenyl)-1H-pyrrole-3-carboxamide] were, in that order, 4.53 µM and 5.17 µM.
Regarding `COc1ccc(NC(=O)c2ccn(S(=O)(=O)c3ccc4[nH]ccc4c3)c2)cc1` [Compound 102, 1-((1H-indol-5-yl)sulfonyl)-N-(4-methoxyphenyl)-1H-pyrrole-3-carboxamide], the IC50 in the assay with A2780 (ovarian) cells worked out at 13.4 µM; in the assay with A549 (NSCLC) cells it was 16.1 µM.
The like results for `COc1ccc(NC(=O)c2ccn(S(=O)(=O)c3ccc4[nH]ccc4c3)c2)cc1F` [Compound 103, 1-((1H-indol-5-yl)sulfonyl)-N-(3-fluoro-4-methoxyphenyl)-1H-pyrrole-3-carboxamide] were, in that order, above 30 µM and above 30 µM.
Regarding `O=C(Nc1ccc2c(c1)OCO2)c1ccn(S(=O)(=O)c2ccc3[nH]ccc3c2)c1` [Compound 104, 1-((1H-indol-5-yl)sulfonyl)-N-(benzo[d][1,3]dioxol-5-yl)-1H-pyrrole-3-carboxamide], the 50% inhibitory concentration (IC50) in the assay on A2780 (ovarian) cells was 8.92 µM; in the assay with A549 (NSCLC) cells it was above 30 µM.
As to `CCC(C)c1ccc(NC(=O)c2ccn(S(=O)(=O)c3ccc4[nH]ccc4c3)n2)cc1` (stereo not shown) [Compound 105, 1-((1H-indol-5-yl)sulfonyl)-N-(4-(sec-butyl)phenyl)-1H-pyrazole-3-carboxamide], the IC50 was determined as 7.51 µM in the assay on A2780 (ovarian) cells and 8.51 µM in the assay on A549 (NSCLC) cells.
In the case of `CCC(C)c1ccc(NC(=O)c2ccn(S(=O)(=O)c3ccc4[nH]ccc4c3)n2)cc1F` (stereo not shown) [Compound 106, 1-((1H-indol-5-yl)sulfonyl)-N-(4-(sec-butyl)-3-fluorophenyl)-1H-pyrazole-3-carboxamide], the IC50 in the assay with A2780 (ovarian) cells amounted to 9.85 µM; with A549 (NSCLC) cells it was 5.44 µM.
For `CCCc1ccc(NC(=O)c2ccn(S(=O)(=O)c3ccc4[nH]ccc4c3)n2)cc1F` [Compound 110, 1-((1H-indol-5-yl)sulfonyl)-N-(3-fluoro-4-propylphenyl)-1H-pyrazole-3-carboxamide], in that order: 7.5 µM and 8.06 µM.
The like results for `CC(C)Cc1ccc(NC(=O)c2ccn(S(=O)(=O)c3ccc4[nH]ccc4c3)n2)cc1` [Compound 111, 1-((1H-indol-5-yl)sulfonyl)-N-(4-isobutylphenyl)-1H-pyrazole-3-carboxamide] were, in that order, 11.4 µM and 6.85 µM.

The IC50 is the concentration needed to halve the response being measured. A higher IC50 goes with a need for much substance.
